Assay results reported in ChEMBL document CHEMBL4828765, “Design and Development of a Chemical Probe for Pseudokinase Ca2+/calmodulin-Dependent Ser/Thr Kinase” (J Med Chem, 2021).

Columns and labels:
[1] = molecular target: Casein kinase I isoform epsilon (Homo sapiens, UniProt P49674); assay: Binding affinity to CSNK1E (unknown origin) assessed as change in melting temperature by SYPRO orange dye based DSF assay
[2] = molecular target: T1, Tyrosine-protein kinase ABL1 (Homo sapiens, UniProt P00519)
Description: Binding affinity to non-phosphorylated ABL1 (unknown origin) assessed as change in melting temperature by SYPRO orange dye based DSF assay

[3] = molecular target: T2, Peripheral plasma membrane protein CASK (Homo sapiens) (UniProt O14936)
T2 sequence (whole entry): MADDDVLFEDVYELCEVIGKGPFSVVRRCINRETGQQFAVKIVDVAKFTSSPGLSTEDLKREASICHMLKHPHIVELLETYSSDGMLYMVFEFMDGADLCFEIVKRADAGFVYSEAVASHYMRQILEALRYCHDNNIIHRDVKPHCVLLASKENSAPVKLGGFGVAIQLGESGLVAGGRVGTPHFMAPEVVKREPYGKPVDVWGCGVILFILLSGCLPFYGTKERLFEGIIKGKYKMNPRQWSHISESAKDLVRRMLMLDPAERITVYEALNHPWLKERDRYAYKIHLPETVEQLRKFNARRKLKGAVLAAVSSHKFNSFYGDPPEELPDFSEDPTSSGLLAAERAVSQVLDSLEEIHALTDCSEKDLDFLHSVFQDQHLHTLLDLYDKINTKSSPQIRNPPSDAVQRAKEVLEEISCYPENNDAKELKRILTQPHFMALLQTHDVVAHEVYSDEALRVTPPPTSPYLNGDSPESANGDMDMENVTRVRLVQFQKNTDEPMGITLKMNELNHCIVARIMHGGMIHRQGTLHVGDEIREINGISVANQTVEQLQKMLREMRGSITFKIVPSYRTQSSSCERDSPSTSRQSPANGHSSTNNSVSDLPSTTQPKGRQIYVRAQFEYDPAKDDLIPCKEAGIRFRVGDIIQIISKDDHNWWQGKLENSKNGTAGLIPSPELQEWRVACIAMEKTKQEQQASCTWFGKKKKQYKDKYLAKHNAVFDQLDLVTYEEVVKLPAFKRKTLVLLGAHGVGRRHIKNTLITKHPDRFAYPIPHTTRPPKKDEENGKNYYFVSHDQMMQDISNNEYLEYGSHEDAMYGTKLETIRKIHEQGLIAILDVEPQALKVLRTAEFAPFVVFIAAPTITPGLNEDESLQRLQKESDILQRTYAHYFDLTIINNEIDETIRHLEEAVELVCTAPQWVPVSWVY
Description: Binding affinity to recombinant N-terminal His-tagged CASK (1 to 337 residues) (unknown origin) expressed in Escherichia coli assessed as change in melting temperature by SYPRO orange dye based DSF assay

[4] = molecular target: T3, Tyrosine-protein kinase Mer (Homo sapiens) (UniProt Q12866); assay: Binding affinity to MERTK (571 to 864 residue) (unknown origin) expressed in Escherichia coli Rosetta cells assessed as change in melting temperature by SYPRO orange dye based DSF assay
T3 sequence (whole entry): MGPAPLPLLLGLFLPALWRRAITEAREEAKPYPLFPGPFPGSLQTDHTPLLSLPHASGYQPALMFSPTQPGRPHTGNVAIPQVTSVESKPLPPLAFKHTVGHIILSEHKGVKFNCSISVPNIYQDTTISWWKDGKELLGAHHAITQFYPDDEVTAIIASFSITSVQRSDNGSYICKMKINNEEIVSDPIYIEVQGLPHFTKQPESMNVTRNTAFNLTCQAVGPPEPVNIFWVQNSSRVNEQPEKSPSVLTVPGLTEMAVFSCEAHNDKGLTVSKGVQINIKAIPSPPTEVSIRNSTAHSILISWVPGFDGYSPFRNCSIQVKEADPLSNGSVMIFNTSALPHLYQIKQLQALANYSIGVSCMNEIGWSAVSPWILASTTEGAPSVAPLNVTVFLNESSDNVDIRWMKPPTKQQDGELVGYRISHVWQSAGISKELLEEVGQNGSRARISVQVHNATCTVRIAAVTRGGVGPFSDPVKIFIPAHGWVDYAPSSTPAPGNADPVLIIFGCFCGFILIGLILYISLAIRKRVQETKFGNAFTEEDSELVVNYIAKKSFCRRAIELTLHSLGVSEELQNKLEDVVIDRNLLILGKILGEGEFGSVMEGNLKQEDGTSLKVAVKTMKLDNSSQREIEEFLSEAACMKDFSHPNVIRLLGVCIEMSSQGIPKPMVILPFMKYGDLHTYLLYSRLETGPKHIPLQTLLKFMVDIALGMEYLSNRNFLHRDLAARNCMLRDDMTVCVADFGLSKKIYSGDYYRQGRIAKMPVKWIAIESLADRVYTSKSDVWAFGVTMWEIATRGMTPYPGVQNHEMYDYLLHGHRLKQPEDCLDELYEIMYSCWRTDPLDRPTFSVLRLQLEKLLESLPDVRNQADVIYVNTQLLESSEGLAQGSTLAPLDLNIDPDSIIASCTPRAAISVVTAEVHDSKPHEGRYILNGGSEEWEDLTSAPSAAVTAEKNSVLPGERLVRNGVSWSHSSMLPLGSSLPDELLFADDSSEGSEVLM

[5] = organism: Homo sapiens; assay: Binding affinity to MERTK-AXL mutant (unknown origin) expressed in Escherichia coli Rosetta cells assessed as change in melting temperature by SYPRO orange dye based DSF assay
[6] = molecular target: T4, Tyrosine-protein kinase receptor TYRO3 (Homo sapiens, UniProt Q06418); assay: Inhibition of tracer K5 binding to NanoLuc-fused TYRO3 (unknown origin) expressed in HEK293T cells measured after 2 hrs by NanoBRET assay; assay type: cell-based
T4 sequence (Q06418 whole entry): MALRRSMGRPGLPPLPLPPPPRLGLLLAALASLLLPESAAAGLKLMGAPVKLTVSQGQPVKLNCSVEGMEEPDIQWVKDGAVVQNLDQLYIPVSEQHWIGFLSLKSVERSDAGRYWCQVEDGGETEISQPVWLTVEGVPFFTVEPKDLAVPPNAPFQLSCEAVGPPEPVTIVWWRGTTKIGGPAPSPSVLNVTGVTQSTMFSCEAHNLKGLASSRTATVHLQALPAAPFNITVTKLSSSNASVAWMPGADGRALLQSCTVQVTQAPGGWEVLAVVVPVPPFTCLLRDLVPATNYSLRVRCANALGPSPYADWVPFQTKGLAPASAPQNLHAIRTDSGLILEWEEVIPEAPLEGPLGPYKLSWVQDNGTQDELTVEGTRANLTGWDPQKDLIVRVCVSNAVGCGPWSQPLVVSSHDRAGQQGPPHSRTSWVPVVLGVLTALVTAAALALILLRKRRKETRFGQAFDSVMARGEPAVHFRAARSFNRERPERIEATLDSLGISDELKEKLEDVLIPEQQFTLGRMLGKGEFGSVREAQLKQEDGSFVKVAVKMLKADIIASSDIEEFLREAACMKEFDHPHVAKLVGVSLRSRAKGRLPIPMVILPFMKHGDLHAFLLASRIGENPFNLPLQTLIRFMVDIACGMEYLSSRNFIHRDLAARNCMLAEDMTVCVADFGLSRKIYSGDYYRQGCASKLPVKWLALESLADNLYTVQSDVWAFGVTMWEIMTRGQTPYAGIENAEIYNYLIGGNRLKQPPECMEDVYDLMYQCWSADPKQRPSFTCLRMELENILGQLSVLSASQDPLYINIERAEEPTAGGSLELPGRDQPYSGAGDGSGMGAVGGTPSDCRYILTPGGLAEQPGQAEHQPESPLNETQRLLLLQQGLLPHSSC

[7] = molecular target: T5, Tyrosine-protein kinase Mer (Homo sapiens, UniProt Q12866); assay: Inhibition of tracer K5 binding to NanoLuc-fused MERTK (unknown origin) expressed in HEK293T cells measured after 2 hrs by NanoBRET assay; assay type: cell-based
T5 sequence (Q12866 whole entry): T3 sequence (whole entry)

[8] = molecular target: T1, Tyrosine-protein kinase ABL1; assay: Inhibition of tracer K5 binding to NanoLuc-fused ABL1 (unknown origin) expressed in HEK293T cells measured after 2 hrs by NanoBRET assay; assay type: cell-based
[9] = molecular target: T6, Tyrosine-protein kinase receptor UFO (Homo sapiens, UniProt P30530); assay: Inhibition of tracer K5 binding to NanoLuc-fused AXL (unknown origin) expressed in HEK293T cells measured after 2 hrs by NanoBRET assay; assay type: cell-based
T6 sequence (P30530 whole entry): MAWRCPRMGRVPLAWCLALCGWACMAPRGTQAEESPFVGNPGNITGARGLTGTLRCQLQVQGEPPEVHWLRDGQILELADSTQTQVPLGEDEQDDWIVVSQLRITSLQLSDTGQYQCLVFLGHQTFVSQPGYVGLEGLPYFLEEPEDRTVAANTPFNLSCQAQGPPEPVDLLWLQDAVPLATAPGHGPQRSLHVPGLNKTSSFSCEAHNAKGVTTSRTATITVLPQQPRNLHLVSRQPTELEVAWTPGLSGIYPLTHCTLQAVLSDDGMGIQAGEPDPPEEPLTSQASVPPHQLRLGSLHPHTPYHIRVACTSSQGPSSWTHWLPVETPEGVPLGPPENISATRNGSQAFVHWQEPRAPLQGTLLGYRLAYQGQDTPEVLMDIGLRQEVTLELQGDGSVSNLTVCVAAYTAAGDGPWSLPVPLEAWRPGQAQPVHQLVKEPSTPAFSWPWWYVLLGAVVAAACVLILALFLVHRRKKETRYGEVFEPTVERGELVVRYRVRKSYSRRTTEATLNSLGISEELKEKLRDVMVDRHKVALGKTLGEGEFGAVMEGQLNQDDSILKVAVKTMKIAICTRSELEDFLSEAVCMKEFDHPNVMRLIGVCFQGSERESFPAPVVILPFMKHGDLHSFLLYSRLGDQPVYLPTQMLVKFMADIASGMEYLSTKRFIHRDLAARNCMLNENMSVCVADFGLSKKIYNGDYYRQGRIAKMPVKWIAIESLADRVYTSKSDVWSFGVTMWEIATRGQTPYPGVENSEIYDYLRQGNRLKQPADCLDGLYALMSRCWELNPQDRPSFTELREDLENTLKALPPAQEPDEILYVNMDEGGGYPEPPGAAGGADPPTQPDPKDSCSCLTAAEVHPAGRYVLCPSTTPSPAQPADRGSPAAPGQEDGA

T1 sequence (P00519 whole entry): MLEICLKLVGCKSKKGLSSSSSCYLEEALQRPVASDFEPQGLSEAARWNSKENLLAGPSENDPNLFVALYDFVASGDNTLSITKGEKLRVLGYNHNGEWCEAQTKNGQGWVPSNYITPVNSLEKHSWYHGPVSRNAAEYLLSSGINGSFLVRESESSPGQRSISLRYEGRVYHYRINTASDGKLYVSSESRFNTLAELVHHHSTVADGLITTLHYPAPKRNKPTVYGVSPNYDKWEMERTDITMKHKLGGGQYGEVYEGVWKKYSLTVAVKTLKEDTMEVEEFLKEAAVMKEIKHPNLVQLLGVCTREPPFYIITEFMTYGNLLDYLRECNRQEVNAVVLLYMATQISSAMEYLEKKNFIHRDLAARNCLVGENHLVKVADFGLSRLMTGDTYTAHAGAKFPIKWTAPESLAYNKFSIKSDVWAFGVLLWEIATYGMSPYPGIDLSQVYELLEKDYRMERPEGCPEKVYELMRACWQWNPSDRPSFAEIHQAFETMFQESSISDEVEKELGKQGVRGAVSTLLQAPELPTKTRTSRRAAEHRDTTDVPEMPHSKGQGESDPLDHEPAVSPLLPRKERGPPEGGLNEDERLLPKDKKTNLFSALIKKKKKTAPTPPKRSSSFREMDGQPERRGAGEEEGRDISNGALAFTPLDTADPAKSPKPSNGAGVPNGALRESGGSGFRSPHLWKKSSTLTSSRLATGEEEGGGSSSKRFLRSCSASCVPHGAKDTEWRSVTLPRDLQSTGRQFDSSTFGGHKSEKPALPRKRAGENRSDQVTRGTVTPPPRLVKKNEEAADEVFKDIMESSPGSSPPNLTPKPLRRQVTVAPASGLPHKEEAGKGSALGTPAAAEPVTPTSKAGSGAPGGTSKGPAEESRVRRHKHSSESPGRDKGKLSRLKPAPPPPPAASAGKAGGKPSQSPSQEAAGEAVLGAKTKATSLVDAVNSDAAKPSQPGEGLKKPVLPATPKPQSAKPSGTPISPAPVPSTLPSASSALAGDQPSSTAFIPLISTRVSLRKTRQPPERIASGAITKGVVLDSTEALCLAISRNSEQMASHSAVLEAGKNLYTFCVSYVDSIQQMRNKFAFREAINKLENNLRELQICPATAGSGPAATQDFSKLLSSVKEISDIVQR
Chain of Casein kinase I isoform epsilon (P49674 whole entry, looked up, canonical isoform): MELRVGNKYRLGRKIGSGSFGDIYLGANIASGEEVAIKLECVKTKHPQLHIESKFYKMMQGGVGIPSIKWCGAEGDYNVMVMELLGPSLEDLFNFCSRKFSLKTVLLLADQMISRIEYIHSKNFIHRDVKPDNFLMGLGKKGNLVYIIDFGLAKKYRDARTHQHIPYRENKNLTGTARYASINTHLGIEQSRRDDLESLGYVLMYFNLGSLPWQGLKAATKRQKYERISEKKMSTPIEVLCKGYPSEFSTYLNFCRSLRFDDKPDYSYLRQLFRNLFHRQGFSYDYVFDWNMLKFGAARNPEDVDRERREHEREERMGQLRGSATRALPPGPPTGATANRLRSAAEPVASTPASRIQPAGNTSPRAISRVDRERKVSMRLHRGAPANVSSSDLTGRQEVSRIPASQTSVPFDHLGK

Row | Structure (SMILES) | deltaTm [1] [K] | deltaTm [2] [K] | deltaTm [3] [K] | deltaTm [4] [K] | IC50 [6] [µM] | IC50 [7] [µM] | IC50 [8] [µM] | IC50 [9] [µM] | deltaTm [5] [K]
1 | Cc1ccc(CNc2ncc(C(=O)NCCCN3CCOC3=O)c(NC3CCCC3)n2)c(Br)c1 | 0.1 | 5.8 | 6.1 | -0.2 |  |  |  |  | -0.1
2 | O=C(NCCCN1CCCC1=O)c1cnc(NCc2cc(Cl)ccc2Cl)nc1NC1CC1 | 4 | 4.9 | 1.4 | -0.4 |  |  |  |  | -0.2
3 | O=C(NCCCN1CCCC1=O)c1cnc(NCc2cc(Cl)ccc2Cl)nc1Nc1ccccc1 | 3.6 | 2.9 | 1.4 | -0.7 |  |  |  |  | -0.3
4 | O=C(NCCCN1CCCC1=O)c1cnc(NCc2cc(Cl)ccc2Cl)nc1NC1CCCCC1 | 5 | 7.7 | 5.7 | -0.2 |  |  |  |  | 0.1
5 | CN[C@@H]1C[C@H]2O[C@@](C)([C@@H]1OC)n1c3ccccc3c3c4c(c5c6ccccc6n2c5c31)C(=O)NC4 | 2.3 |  |  | 4.8 |  |  |  |  | 
6 | O=C(NCCCN1CCOC1=O)c1cnc(NCc2cc(Br)ccc2Br)nc1NC1CCCC1 | 3.6 | 6 | 5.1 | -0.6 |  |  |  |  | 0.2
7 | Cc1ccc(CNc2ncc(C(=O)NCCCN3CCOC3=O)c(NC3CCCCC3)n2)c(Br)c1 | 1.5 | 6.2 | 6 | 0.7 |  |  |  |  | -0.1
8 | COc1ccc(OC)c(CNc2ncc(C(=O)NCCCN3CCCC3=O)c(NC3CCCC3)n2)c1 | 0.4 | 0.7 | 0.8 | -0.5 |  |  |  |  | -0.2

More lines, main results first:

Row | deltaTm [1] [K] | deltaTm [2] [K] | deltaTm [3] [K] | deltaTm [4] [K] | IC50 [6] [µM] | IC50 [7] [µM] | IC50 [8] [µM] | IC50 [9] [µM] | Structure (SMILES) | deltaTm [5] [K]
9 |  |  |  |  | > 10 |  |  |  | CCN(Cc1ccccc1)c1ncc(C(=O)NCCCN2CCCC2=O)c(NC2CCCC2)n1 | 
10 | 5.9 | 6.1 |  | 0.6 |  | 4.48 |  |  | O=C(NCCCN1CCCC1=O)c1cnc(NCc2cc(F)ccc2F)nc1NC1CCCC1 | 0.3
11 | 4.4 | 7 | 4.8 | -0.5 |  |  |  |  | O=C(NCCCN1CCCC1=O)c1cnc(NCc2ccccc2Br)nc1NC1CCCC1 | -0.1
12 | 4.3 | 4.5 | 0.8 | 0.5 |  |  |  |  | O=C(NCCCN1CCCC1=O)c1cnc(NCc2ccccc2)nc1NC1CCCC1 | 0.4
13 | 2.1 | 2.3 |  | 0.1 | > 10 | > 10 | > 10 | > 10 | O=C(NCCCN1CCCC1=O)c1cnc(NCc2ccc(Cl)cc2Cl)nc1NC1CCCC1 | 0
14 | 4.8 | 5.9 | 3.3 | -0.1 |  |  |  |  | O=C(NCCCN1CCCC1=O)c1cnc(NCc2ccccc2Cl)nc1NC1CCCC1 | -0.2
15 | 4.8 | 6 |  | -0.7 |  |  |  |  | O=C(NCCCN1CCCC1=O)c1cnc(NCc2cc(Cl)ccc2Cl)nc1NC1CCCC1 | -0.2
16 | 6.5 | 6.9 | 3.8 | 0.6 |  |  |  |  | O=C(NCCCN1CCCC1=O)c1cnc(NCc2cccc(Br)c2)nc1NC1CCCC1 | 0.3
17 | 4.4 | 6.3 |  | -0.7 |  |  |  |  | O=C(NCCCN1CCCC1=O)c1cnc(NCc2cc(Br)ccc2Br)nc1NC1CCCC1 | 0.2
18 | 2.2 | 6.8 | 1.2 | -0.1 |  |  |  |  | O=C(NCCCN1CCCC1=O)c1cnc(NCc2ccc(Br)cc2)nc1NC1CCCC1 | 0
